This is an account of results in US8569245B2, “Protease inhibitors, compositions and methods of use” (University of Florida Research Foundation, Inc., priority 2009, dated 2013).

For data set [1], the target named is T1, cathepsin D (Homo sapiens, UniProt P07339).
T1 construct: Reaction Biology Corp. (ran the assay)
The class given is biochemical. Conditions: 10 μM. Here is the method:
(§1) After incubation at room temperature for 10-15 min, the substrate was added, after which fluorescence at each relevant Ex/Em wavelength was measured every 5 min for 2 h. The substrate alone in the reaction buffer served as background. […] Each enzyme assay was performed in duplicate by Reaction Biology Corp. (Malvern, Pa.).
(§2) Assays were carried out by Reaction Biology Corp. (Malvern, Pa.). Enzyme activity (in %), calculated as above, was used to determine IC50 values with non-linear regression in GraphPad Prism (GraphPad Software, Inc., La Jolla, Calif.).

The target of data set [2] is T2, cathepsin E (Homo sapiens, UniProt P14091).
T2 construct: Reaction Biology Corp. (ran the assay)
T2 sequence (P14091 54-396): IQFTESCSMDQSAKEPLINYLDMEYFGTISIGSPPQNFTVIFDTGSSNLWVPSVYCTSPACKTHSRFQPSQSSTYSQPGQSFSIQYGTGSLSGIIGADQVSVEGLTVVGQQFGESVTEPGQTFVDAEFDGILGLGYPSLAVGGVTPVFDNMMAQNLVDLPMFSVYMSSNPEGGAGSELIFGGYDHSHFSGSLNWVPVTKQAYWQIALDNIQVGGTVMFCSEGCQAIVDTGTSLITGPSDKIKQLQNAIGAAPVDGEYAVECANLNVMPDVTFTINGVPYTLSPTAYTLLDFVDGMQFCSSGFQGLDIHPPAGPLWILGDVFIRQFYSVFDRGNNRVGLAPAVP
The data set can be described thus: Protease inhibition screen and dose-response assay. The class given is biochemical. Conditions: 10 μM. Here is the method: as §1, §2

The test system of data set [3] is TH cells induced by allogeneic activated DC. Kind of data set: Allogeneic mixed lymphocyte reaction, DCs and TH cells from different donors. The class given is cell-based, human. To be noted: allogeneic MLR.
Data set [4] relates to human peripheral blood mononuclear cells (PBMCs). The data set can be described thus: Antigen-stimulated T cell proliferation in PBMCs (flow cytometry, CD3+ gate). Conditions: same experiment, PBMC. Format: cell-based. The procedure: PBMCs were isolated from buffy coats (leukopac, PBL) obtained from Lifesouth Community Blood Center (Gainesville, Fla., USA) by Ficoll-Hypaque density gradient centrifugation using Lymphoprep (Axis-Shield, Norway). Briefly, the contents of the buffy coat were diluted to three times its volume in sterile 1×PBS pH 7.4 (Gibco, California, USA). The dilution was layered onto the Lymphoprep in a 2:1 ratio. The sample was then centrifuged for 25 min at room temperature and 250 g. The PBMCs were collected at the interface, washed twice with PBS and centrifuged each time for 10 min at 4° C. and 250 g. Cell viability was assessed by trypan blue exclusion. […]
Experimental pelleted cells were incubated for 30 min at 4° C. with antibodies and washed with staining buffer (PBS+2% BSA+0.1% Na azide). […] Quantitation was carried out using FCS Express (version 3, De Novo Software, Los Angeles, Calif.) by gating for lymphocytes based on forward and side scatter properties followed by analysis of the percentages of positively stained quadrants. 50,000 cells were analyzed for each sample and isotype-specific immunoglobulin controls were run for each fluorochrome. […]
On the technique in general: In flow cytometry, cells or beads pass a laser one at a time.

Data set [5] has as its system MCF7 cells. Kind of data set: Cellular uptake and inhibition of cellular cathepsins, treated cells then lysed, cathepsin D/E substrate. Format: cell-based. Here is the method: MCF7 cells were cultured in Dulbecco's Modified Eagle Medium (DMEM, Invitrogen) containing 10% fetal bovine serum (FBS, HyClone, Logan, Utah), in a humidified atmosphere containing 5% CO2 at 37° C. Briefly, MCF7 cells were seeded into 24-well plates. […] After 1 h incubation the medium was removed and the cells were trypsinized for 10 min, before being collected by centrifugation and lysed with NP-40 lysis buffer (1% NP-40, 50 mM NaOAc, pH 4.0). The lysate (50 μL) from each well was incubated at 37° C. with 10 μM Mca-[…]Dnp)-D-Arg-NH2 (the same substrate used for cathepsin D and E in other assays) in 50 mM NaOAc (pH 4.0, total volume 100 μL). The reaction was monitored by measuring the increase in fluorescence (λex=320 nm, λem=405 nm).
After this time, cells were washed, lysed and then the protease activity of the lysate was measured with a fluorogenic cathepsin D/E substrate (see FIG. 9A).

Data set [6] has as its system MCF7 cells. Conditions: literature (Zaidi et al. 2007); cited from earlier work.
A short description of data set [7]: Solubility in DMSO for dilution series. Format: physicochemical.

Starred links: 1 amine or outer side, 2 acyl side, 3 side chain; linkers in the order of their positions; H or OH if unused. Non-standard residues stand in square brackets, D forms with d. Residues, ends and D or L forms follow the SMILES beside them. *: point of attachment. Sta = CC(C)C[C@H](N)[C@@H](O)CC(=O)O; X2 = CC(C)CC(N[*:1])C(O)CC(=O)[*:2]; NMe2Val = CC(C)[C@@H](C(=O)*)N(C)C; dNMeF = CN[C@H](Cc1ccccc1)C(=O)O; NMeF = CN[CH](Cc1ccccc1)C(=O)O; NMeQ = CN[CH](CCC(N)=O)C(=O)O; dHiv = CC(C)[C@@H](O)C(=O)O; Hiv = CC(C)[C@H](O)C(=O)O; Isovaleryl = CC(C)CC(=O)*; X1 = CCC(C)C(O)C(=O)*

T1 sequence (P07339 65-412): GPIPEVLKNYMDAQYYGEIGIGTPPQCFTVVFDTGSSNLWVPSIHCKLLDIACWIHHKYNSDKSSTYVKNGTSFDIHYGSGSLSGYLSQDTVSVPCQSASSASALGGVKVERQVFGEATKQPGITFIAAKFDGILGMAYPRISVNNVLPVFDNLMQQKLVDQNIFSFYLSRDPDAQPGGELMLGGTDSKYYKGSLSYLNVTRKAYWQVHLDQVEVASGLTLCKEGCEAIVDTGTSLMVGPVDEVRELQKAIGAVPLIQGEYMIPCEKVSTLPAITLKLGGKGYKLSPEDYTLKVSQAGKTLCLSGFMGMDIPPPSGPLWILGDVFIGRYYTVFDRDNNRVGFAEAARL

With `COC(=O)[C@@H]1CCCN1C(=O)[C@@H](Cc1ccccc1)N(C)C(=O)[C@H](C)NC(=O)[C@@H](NC(=O)C[C@H](O)[C@H](CC(C)C)NC(=O)[C@H](CC(N)=O)NC(=O)[C@H](CC(C)C)NC(=O)[C@H](OC(=O)[C@@H](OC(=O)[C@H](C(C)C)N(C)C)C(C)C)C(C)C)[C@@H](C)O` [Compound 1, grassystatin A] (NMe2Val-[Hiv][dHiv]LN[Sta]TA[dNMeF]P-OMe), the “inhibitory activity in protease panel” value in data set [1] and in data set [2] was “active” in each case. Further, the DC stimulated proliferation entry in data set [3] is “no effect”. Further, in data set [4], the T cell viability result is “unaffected”. Further, the “ability to enter cells” value in data set [5] (MCF7 cells, inferred from cellular vs lysate IC50) is reported as “more efficiently enter cells than pepstatin A”.

Take `CC(C)CC(=O)N[C@H](C(=O)N[C@H](C(=O)N[C@@H](CC(C)C)[C@@H](O)CC(=O)N[C@@H](C)C(=O)N[C@@H](CC(C)C)[C@@H](O)CC(=O)O)C(C)C)C(C)C` [pepstatin A, reference compound] (Isovaleryl-VV[Sta]A[Sta]-OH): the cell permeability entry in data set [6] is given as “poor cell permeability”. In addition, in data set [5] (MCF7 cells treated 1 h, lysate protease activity), the “apparent IC50 in a cellular system” value was “fairly similar”.

In the case of `CCC(C)C(O)C(=O)NC(CC(C)C)C(=O)N(C)C(CCC(N)=O)C(=O)NC(CC(C)C)C(O)CC(=O)NC(C(=O)NCC(=O)N(C)C(Cc1ccccc1)C(=O)N1CCCC1C(=O)OC)C(C)CC` (centres unmarked) [Compound 3, grassystatin C] (X1-L[NMeQ][X2]IG[NMeF]P-OMe; configuration not given here), the “solubility in DMSO” value in data set [7] is listed as “insoluble”.
